In article PMC3026800, “Mechanism of Inhibition of Enveloped Virus Membrane Fusion by the Antiviral Drug Arbidol” (PLoS ONE, 2011):

System: HApp (pseudoparticles harbouring the influenza hemagglutinin)
Assay type: cell-based
Conditions: 11.3 µM arbidol

`CCOC(=O)c1c(CSc2ccccc2)n(C)c2cc(Br)c(O)c(CN(C)C)c12.Cl` [Arb, 1H-indole-3-carboxylic acid, 6-bromo-4-[(dimethylamino)-methyl]-5-hydroxy-1-methyl-2-[(phenylthio)methyl]-, ethyl ester, monohydrochloride] was tested, and the “Sensitivity of pseudoparticle entry to arbidol” value was “sensitive”.
